# In patent US20090226398A1, “ANTI-VIRAL COMPOUNDS, COMPOSITIONS, AND METHODS OF USE” (Genelabs Technologies, Inc., priority 2008, published 2009):
# pEC50: −log10 of the molar value.
# Tested on: HCV replication
# Test: Replicon Assay (Huh-lucubineo-ET cells, luciferase readout)
# Type: cell-based
# Conditions: Hepatitis C virus; ET (Huh-lucubineo-ET) HCV replicon cell line; luciferase activity 48-72 hours after compound addition; 6 dilutions
# Protocol: A cell line, ET (Huh-lucubineo-ET) was used for screening of compounds of the present invention for inhibition of HCV replication. The ET cell line was stably transfected with RNA transcripts harboring a I389luc-ubi-neo/NS3-3′/ET; replicon with firefly luciferase-ubiquitin-neomycin phosphotransferase fusion protein and EMCV-IRES driven NS3-5B polyprotein containing the cell culture adaptive mutations (E1202G; T1280I; K1846T) (Krieger at al, 2001 and unpublished). The ET cells were grown in DMEM, supplemented with 10% fetal calf serum, 2 mM Glutamine, Penicillin (100 IU/mL)/Streptomycin (100 μg/mL), 1× nonessential amino acids, and 250 μg/mL G418 (“Geneticin”). They were all available through Life Technologies (Bethesda, Md.). The cells were plated at 0.5−1.0×10^4 cells/well in the 96 well plates and incubated for 24 hrs before adding the test compounds. The compounds were then added to the cells to achieve a final concentration of 5 or 50 μM. Luciferase activity was measured 48-72 hours later by adding a lysis buffer and the substrate (Catalog number Glo-lysis buffer E2661 and Bright-Glo luciferase system E2620 Promega, Madison, Wis.). Cells should not be too confluent during the assay. Percent inhibition of replication was plotted relative to no compound control. For EC50 (effective concentration at which 50% of the maximum inhibition is observed) determinations, 6 dilutions of each compound were used. Compounds were typically diluted 3 fold to span a concentration range of 250 fold. EC50 and similarly TC50 values were calculated by fitting % inhibition at each concentration to the following equation:
# % inhibition=100%/[(EC50/[I])^b+1]
# where b is Hill's coefficient.
row,SMILES,pEC50
1,"Fc1cccc(-c2ccc(Cn3cc4nc(-c5cccc(F)c5F)nc-4cn3)nn2)c1 [Compound 222, 2-(2,3-Difluoro-phenyl)-5-[6-(3-fluoro-phenyl)-pyridazin-3-ylmethyl]-5H-imidazo[4,5-d]pyridazine]",≤ 4.30
2,"CCCCOc1ccc(-c2ccc(Cn3cc4nc(-c5cccc(F)c5F)nc-4cn3)nn2)cc1 [Compound 223, 5-[6-(4-Butoxy-phenyl)-pyridazin-3-ylmethyl]-2-(2,3-difluoro-phenyl)-5H-imidazo[4,5-d]pyridazine]",4.31
3,"COc1ccc(-c2ccc(Cn3cc4nc(-c5cccc(F)c5F)nc-4cn3)c(C)n2)c(C(F)(F)F)c1 [Compound 224, 2-(2,3-Difluoro-phenyl)-5-[6-(4-methoxy-2-trifluoromethyl-phenyl)-2-methyl-pyridin-3-ylmethyl]-5H-imidazo[4,5-d]pyridazine]",6.55
4,"Fc1cccc(-c2nc3cnn(Cc4ccc(-c5ccc(C(F)(F)F)cc5)cc4)cc-3n2)c1F [Compound 225, 2-(2,3-Difluoro-phenyl)-5-(4′-trifluoromethyl-biphenyl-4-ylmethyl)-5H-imidazo[4,5-d]pyridazine]",4.86
5,"CCCOc1ccc(-c2ccc(Cn3cc4nc(-c5cccc(F)c5F)nc-4cn3)nn2)c(C(F)(F)F)c1 [Compound 226, 2-(2,3-Difluoro-phenyl)-5-[6-(4-propoxy-2-trifluoromethyl-phenyl)-pyridazin-3-ylmethyl]-5H-imidazo[4,5-d]pyridazine]",8.40
6,"Cc1ccc(-c2ccc(Cn3cc4nc(-c5cccc(F)c5F)nc-4cn3)nn2)c(Cl)c1 [Compound 227, 5-[6-(2-Chloro-4-methyl-phenyl)-pyridazin-3-ylmethyl]-2-(2,3-difluoro-phenyl)-5H-imidazo[4,5-d]pyridazine]",7.01
7,"COc1ccc(-c2ccc(Cn3cc4nc(-c5cccc(F)c5F)nc-4cn3)nn2)c(Cl)c1 [Compound 228, 5-[6-(2-Chloro-4-methoxy-phenyl)-pyridazin-3-ylmethyl]-2-(2,3-difluoro-phenyl)-5H-imidazo[4,5-d]pyridazine]",6.95
8,"Fc1cccc(-c2nc3cnn(Cc4ccc(-c5ccc(OC(F)(F)F)cc5)cc4)cc-3n2)c1F [Compound 229, 2-(2,3-Difluoro-phenyl)-5-(4′-trifluoromethoxy-biphenyl-4-ylmethyl)-5H-imidazo[4,5-d]pyridazine]",5.08
9,"Fc1cc(C(F)(F)F)ccc1-c1ccc(Cn2cc3nc(-c4cccc(F)c4F)nc-3cn2)cc1 [Compound 230, 2-(2,3-Difluoro-phenyl)-5-(2′-fluoro-4′-trifluoromethyl-biphenyl-4-ylmethyl)-5H-imidazo[4,5-d]pyridazine]",5.50
10,"CC(F)(F)COc1ccc(-c2ccc(Cn3cc4nc(-c5cccc(F)c5F)nc-4cn3)nn2)c(C(F)(F)F)c1 [Compound 231, 2-(2,3-Difluoro-phenyl)-5-{6-[4-(2,2-difluoro-propoxy)-2-trifluoromethyl-phenyl]-pyridazin-3-ylmethyl}-5H-imidazo[4,5-d]pyridazine]",6.79
11,"CCCOc1ccc(-c2ccc(Cn3cc4nc(-c5cccc(F)c5F)nc-4cn3)c(N)n2)c(C(F)(F)F)c1 [Compound 232, 3-[2-(2,3-Difluoro-phenyl)-imidazo[4,5-d]pyridazin-5-ylmethyl]-6-(4-propoxy-2-trifluoromethyl-phenyl)-pyridin-2-ylamine]",7.74
12,"CN(C)Cc1ccc(-c2ccc(Cn3cc4nc(-c5cccc(F)c5F)nc-4cn3)nn2)cc1 [Compound 233, (4-{6-[2-(2,3-Difluoro-phenyl)-imidazo[4,5-d]pyridazin-5-ylmethyl]-pyridazin-3-yl}-benzyl)-dimethyl-amine]",≤ 4.30
13,"CCCOc1ccc(-c2ccc(Cn3cc4nc(-c5cccc(F)c5F)nc-4cn3)cn2)c(C)c1 [Compound 234, 2-(2,3-Difluoro-phenyl)-5-[6-(2-methyl-4-propoxy-phenyl)-pyridin-3-ylmethyl]-5H-imidazo[4,5-d]pyridazine]",5.92
14,"COc1ccc(-c2ccc(Cn3cc4nc(-c5cccc(F)c5F)nc-4cn3)cn2)c(C(F)(F)F)c1 [Compound 235, 2-(2,3-Difluoro-phenyl)-5-[6-(4-methoxy-2-trifluoromethyl-phenyl)-pyridin-3-ylmethyl]-5H-imidazo[4,5-d]pyridazine]",8.00
15,"Fc1cccc(-c2nc3cnn(Cc4ccc(-c5ccc(Cl)cc5C(F)(F)F)nc4)cc-3n2)c1F [Compound 236, 5-[6-(4-Chloro-2-trifluoromethyl-phenyl)-pyridin-3-ylmethyl]-2-(2,3-difluoro-phenyl)-5H-imidazo[4,5-d]pyridazine]",7.82
16,"Fc1cccc(-c2nc3cnn(Cc4ccc(-c5ccc(C(F)(F)F)cc5Cl)nc4)cc-3n2)c1F [Compound 237, 5-[6-(2-Chloro-4-trifluoromethyl-phenyl)-pyridin-3-ylmethyl]-2-(2,3-difluoro-phenyl)-5H-imidazo[4,5-d]pyridazine]",6.92
17,"COc1ccc(-c2ccc(Cn3cc4nc(-c5cccc(F)c5F)nc-4cn3)nn2)c(C(F)(F)F)c1 [Compound 238, 2-(2,3-Difluoro-phenyl)-5-[6-(4-methoxy-2-trifluoromethyl-phenyl)-pyridazin-3-ylmethyl]-5H-imidazo[4,5-d]pyridazine]",8.22
18,"Cc1ccc(-c2ccc(Cn3cc4nc(-c5cccc(F)c5F)nc-4cn3)nc2)c(C(F)(F)F)c1 [Compound 239, 2-(2,3-Difluoro-phenyl)-5-[5-(4-methyl-2-trifluoromethyl-phenyl)-pyridin-2-ylmethyl]-5H-imidazo[4,5-d]pyridazine]",7.20
19,"Cc1ccc(-c2ccc(Cn3cc4nc(-c5cccc(F)c5F)nc-4cn3)c(N)n2)c(C(F)(F)F)c1 [Compound 240, 3-[2-(2,3-Difluoro-phenyl)-imidazo[4,5-d]pyridazin-5-ylmethyl]-6-(4-methyl-2-trifluoromethyl-phenyl)-pyridin-2-ylamine]",7.36
20,"COc1ccc(-c2ccc(Cn3cc4nc(-c5cccc(F)c5F)nc-4cn3)cc2)c(C(F)(F)F)c1 [Compound 241, 2-(2,3-Difluoro-phenyl)-5-(4′-methoxy-2′-trifluoromethyl-biphenyl-4-ylmethyl)-5H-imidazo[4,5-d]pyridazine]",7.68
21,"COc1ccc(-c2ccc(Cn3cc4nc(-c5cccc(F)c5F)nc-4cn3)c(N)n2)c(C(F)(F)F)c1 [Compound 242, 3-[2-(2,3-Difluoro-phenyl)-imidazo[4,5-d]pyridazin-5-ylmethyl]-6-(4-methoxy-2-trifluoromethyl-phenyl)-pyridin-2-ylamine]",7.36
22,"COc1ccc(-c2ccc(Cn3cc4nc(-c5cccc(F)c5F)nc-4cn3)nc2)c(C(F)(F)F)c1 [Compound 243, 2-(2,3-Difluoro-phenyl)-5-[5-(4-methoxy-2-trifluoromethyl-phenyl)-pyridin-2-ylmethyl]-5H-imidazo[4,5-d]pyridazine]",7.77
23,"Fc1cccc(-c2nc3cnn(Cc4ccc(-c5ccc(C(F)(F)F)cc5C(F)(F)F)cc4)cc-3n2)c1F [Compound 244, 5-(2′,4′-Bis-trifluoromethyl-biphenyl-4-ylmethyl)-2-(2,3-difluoro-phenyl)-5H-imidazo[4,5-d]pyridazine]",8.05
24,"CCCOc1ccc(-c2ccc(Cn3cc4nc(-c5cccc(F)c5F)nc-4cn3)cn2)cc1 [Compound 245, 2-(2,3-Difluoro-phenyl)-5-[6-(4-propoxy-phenyl)-pyridin-3-ylmethyl]-5H-imidazo[4,5-d]pyridazine]",5.08
25,"Fc1cccc(-c2nc3cnn(Cc4ccc(-c5ccc(C(F)(F)F)cc5)cn4)cc-3n2)c1F [Compound 246, 2-(2,3-Difluoro-phenyl)-5-[5-(4-trifluoromethyl-phenyl)-pyridin-2-ylmethyl]-5H-imidazo[4,5-d]pyridazine]",≤ 4.30
26,"CCCOc1ccc(-c2ccc(Cn3cc4nc(-c5cccc(F)c5F)nc-4cn3)nc2)cc1 [Compound 247, 2-(2,3-Difluoro-phenyl)-5-[5-(4-propoxy-phenyl)-pyridin-2-ylmethyl]-5H-imidazo[4,5-d]pyridazine]",5.29
27,"Fc1cccc(-c2nc3cnn(Cc4ccc(-c5ccc(OC(F)(F)F)cc5)nc4)cc-3n2)c1F [Compound 249, 2-(2,3-Difluoro-phenyl)-5-[6-(4-trifluoromethoxy-phenyl)-pyridin-3-ylmethyl]-5H-imidazo[4,5-d]pyridazine]",≤ 4.30
28,"Fc1cccc(-c2nc3cnn(Cc4ccc(-c5ccccc5C(F)(F)F)nc4)cc-3n2)c1F [Compound 250, 2-(2,3-Difluoro-phenyl)-5-[6-(2-trifluoromethyl-phenyl)-pyridin-3-ylmethyl]-5H-imidazo[4,5-d]pyridazine]",≤ 4.30
29,"Fc1cc(C(F)(F)F)ccc1-c1ccc(Cn2cc3nc(-c4cccc(F)c4F)nc-3cn2)cn1 [Compound 251, 2-(2,3-Difluoro-phenyl)-5-[6-(2-fluoro-4-trifluoromethyl-phenyl)-pyridin-3-ylmethyl]-5H-imidazo[4,5-d]pyridazine]",≤ 4.30
